Source: PMC4980415 (Psychopharmacology, 2016)
Structures can show the parent of a compound that is named as a salt. Where two headings read alike, the source gives them in different places.

Legend:
PDE1 (bovine brain) = experiment: PDE activity IMAP assay, bovine brain PDE1; format: biochemical; conditions: Fl-cGMP substrate, CaCl2/calmodulin
PDE1 isoforms = experiment: PDE1 potency and selectivity versus other PDE families; format: biochemical; conditions: span of Table 1 values; read-out: Ki for inhibition of recombinant or bovine PDE1 enzymes
[1] = target: T1, DA transporter (h), dopamine (Homo sapiens, UniProt Q01959); experiment: Off-target binding, General SEP II panel; conditions: 10 μM ITI-214, mean of n = 2
T1 construct: Caliper Life Sciences (contract screen)
T1 sequence (Q01959 whole entry): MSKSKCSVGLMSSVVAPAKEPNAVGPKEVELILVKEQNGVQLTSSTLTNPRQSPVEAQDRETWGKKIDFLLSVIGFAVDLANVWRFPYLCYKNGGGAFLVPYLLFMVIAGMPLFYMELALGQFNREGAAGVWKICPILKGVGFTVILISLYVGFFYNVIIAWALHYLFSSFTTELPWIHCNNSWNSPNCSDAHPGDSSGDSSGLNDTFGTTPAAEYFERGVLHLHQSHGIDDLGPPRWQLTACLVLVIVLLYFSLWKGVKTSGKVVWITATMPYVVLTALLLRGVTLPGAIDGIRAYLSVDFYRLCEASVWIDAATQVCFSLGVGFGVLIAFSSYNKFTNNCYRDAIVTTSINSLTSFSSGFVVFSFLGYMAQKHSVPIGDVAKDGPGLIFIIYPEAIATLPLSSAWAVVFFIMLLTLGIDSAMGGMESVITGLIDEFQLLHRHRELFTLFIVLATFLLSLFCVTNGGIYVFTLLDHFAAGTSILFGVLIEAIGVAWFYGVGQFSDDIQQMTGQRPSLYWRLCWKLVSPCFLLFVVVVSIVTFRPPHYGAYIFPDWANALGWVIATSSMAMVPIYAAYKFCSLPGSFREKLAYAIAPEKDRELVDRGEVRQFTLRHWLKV

[2] = tested on: Alpha 2 (non-selective), adrenergic; experiment: Off-target binding, General SEP II panel; conditions: 10 μM ITI-214, mean of n = 2
[3] = tested on: memory acquisition in male Wistar rats; experiment: Novel object recognition (NOR): acquisition, drug 2 h before T1; format: in vivo, rat; conditions: for Exploration time e1 (T1) / Exploration time e2 (T2): 2 h before T1, 24 h interval
Protocol: (§1) The drug was administered, per os (po), by gavage to rats in a volume of 2 ml/kg body weight. Oral dosing solutions were prepared fresh daily. […] The pH of the dosing solution was adjusted to ~pH 5.5 by dropwise addition of 0.1 N NaOH in saline and volume adjusted by addition of saline in preparation for intraperitoneal (ip) dosing. […] Control treatments were always the vehicle solutions of the corresponding drugs.
(§2) The object recognition test was performed as described elsewhere (Ennaceur and Delacour [1988]; Akkerman et al. 2014). The apparatus consisted of a circular arena, 83 cm in diameter. Half of the 40-cm-high wall was made of gray polyvinyl chloride, the other half of transparent polyvinyl chloride. The light intensity was equal in the different parts of the apparatus, as fluorescent red tubes provided a constant illumination of about 20 lx on the floor of the apparatus. Two objects were placed in a symmetrical position at about 10 cm from the gray wall. Four different sets of objects were used. The different objects were (1) a cone consisting of a gray polyvinyl chloride base (maximal diameter 18 cm) with a collar on top made of brass (total height 16 cm), (2) a standard 1 L transparent glass bottle (diameter 10 cm, height 22 cm) filled with water, (3) a large metal cube (10.0 × 5.0 × 7.5 cm) with two holes (diameter 1.9 cm), and (4) a large aluminum cube with a tapering top (13.0 × 8.0 × 8.0 cm). The objects used in this study were carefully selected to be “novelty neutral,” that is to say the rats have no innate preference for one over the other. In all cases, objects were of sufficient size and weight that rats could not move the objects.
(§3) A testing session consisted of two trials. The duration of each trial was 3 min. During the first trial (T1), the apparatus contained two identical objects (samples). Rats were placed in the apparatus facing the wall at the middle of the front (transparent) segment. After the first exploration period, the rat was put back in its home cage. Subsequently, after a 24-h delay interval, the rat was put in the apparatus for the second trial (T2). The times spent in exploring each object during T1 and T2 were recorded manually using a personal computer.
(§4) Exploration was defined as follows: directing the nose to the object at a distance of no more than 2 cm and/or touching the object with the nose. Sitting on the object was not considered as exploratory behavior. In order to avoid the presence of olfactory cues, the objects were always thoroughly cleaned with a 70 % ethanol solution before each trial. All combinations and locations of objects were used in a balanced manner to reduce potential biases due to preferences for particular locations or objects.
(§5) During the first 2 weeks after animal arrival, the animals were handled daily. They were then adapted to the procedure over the period of 2 days by allowing them to explore the apparatus (without any objects) for 3 min twice each day. […] After this, the rats were assigned to treatment conditions in a balanced manner, thereby insuring an equal distribution of object combinations among the treatment conditions. […] In all experiments, a 24-h inter-trial interval was used. In all cases, the experimenter was unaware of the treatment conditions that were being tested.
(§6) The basic measure recorded was the time spent by each rat exploring an object during T1 and T2. The time spent in exploring the two identical samples was represented by “a1” and “a2.” The time spent in T2 in exploring the sample and new object was represented by “a” and “b,” respectively. The following variables were calculated: e1 = a1 + a2, e2 = a + b, and d2 = (b − a) / e2. The e1 and e2 are measures of the total exploration time of both objects during T1 and T2, respectively. Differences in exploration times between treatment conditions were analyzed using a t test or one-way ANOVA. […]

NK1 (h), neurokinin = target: T2, NK1 (h), neurokinin (Homo sapiens, UniProt P25103); experiment: Off-target binding, General SEP II panel; conditions: 10 μM ITI-214, mean of n = 2
T2 construct: Caliper Life Sciences (contract screen)
T2 sequence (P25103 whole entry): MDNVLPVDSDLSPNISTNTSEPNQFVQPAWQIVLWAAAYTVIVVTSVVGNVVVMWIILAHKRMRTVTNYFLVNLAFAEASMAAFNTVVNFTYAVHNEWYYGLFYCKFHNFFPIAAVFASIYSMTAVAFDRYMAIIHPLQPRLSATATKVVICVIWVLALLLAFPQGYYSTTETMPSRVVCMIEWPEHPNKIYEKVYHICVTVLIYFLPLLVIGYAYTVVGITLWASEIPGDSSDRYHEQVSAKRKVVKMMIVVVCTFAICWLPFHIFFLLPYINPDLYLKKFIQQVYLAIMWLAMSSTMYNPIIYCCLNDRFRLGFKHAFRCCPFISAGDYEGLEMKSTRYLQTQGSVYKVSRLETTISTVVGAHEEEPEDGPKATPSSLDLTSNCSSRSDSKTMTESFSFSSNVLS

[4] = tested on: memory retrieval in male Wistar rats; experiment: Novel object recognition (NOR): retrieval, drug 2 h before T2; format: in vivo, rat; conditions: for Exploration time e1 (T1) / Exploration time e2 (T2): 2 h before T2, 24 h interval
Protocol: as §1, §2, §3, §4, §5, §6

[5] = Pharmacokinetics of ITI-214 in rats; format: in vivo; conditions: rat, oral; for concentration at 2 h: 3 mg/kg
From the text: Standard methods of tissue extraction were used.

[6] = tested on: Na^+ channel (site 2), sodium channel; experiment: Off-target binding, General SEP II panel; conditions: 10 μM ITI-214, mean of n = 2
[7] = tested on: Ca^2+ channel (L, DHP site); experiment: Off-target binding, General SEP II panel; conditions: 10 μM ITI-214, mean of n = 2
H3 (h), histamine = target: T3, H3 (h), histamine (Homo sapiens, UniProt Q9Y5N1); experiment: Off-target binding, General SEP II panel; conditions: 10 μM ITI-214, mean of n = 2
T3 construct: Caliper Life Sciences (contract screen)
T3 sequence (Q9Y5N1 whole entry): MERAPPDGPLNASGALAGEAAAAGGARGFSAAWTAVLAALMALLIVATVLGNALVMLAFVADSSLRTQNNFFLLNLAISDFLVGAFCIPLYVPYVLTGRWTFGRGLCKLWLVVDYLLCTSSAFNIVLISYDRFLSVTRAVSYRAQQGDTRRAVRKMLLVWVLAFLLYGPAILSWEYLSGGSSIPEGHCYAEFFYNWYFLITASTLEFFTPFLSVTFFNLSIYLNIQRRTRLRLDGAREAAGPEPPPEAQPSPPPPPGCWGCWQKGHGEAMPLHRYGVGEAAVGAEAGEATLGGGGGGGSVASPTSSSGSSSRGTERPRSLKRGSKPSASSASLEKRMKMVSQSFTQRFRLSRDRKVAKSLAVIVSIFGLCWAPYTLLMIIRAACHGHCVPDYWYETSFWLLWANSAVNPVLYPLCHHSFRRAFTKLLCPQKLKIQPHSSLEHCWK

CN1C(=O)c2c(nn(Cc3ccc(-c4cccc(F)n4)cc3)c2Nc2ccccc2)N2C1=N[C@@H]1CCC[C@@H]12 [ITI-214, (6aR,9aS)-2-(4-(6-fluoropyridin-2-yl)benzyl)-5-methyl-3-(phenylamino)-5,6a,7,8,9,9a-hexahydrocyclopenta-[4,5]imidazo[1,2-a]pyrazolo[4,3-e]pyrimidin-4-(2H)-one phosphate salt]
Ki (PDE1 (bovine brain)): 0.058 nM
Ki (PDE1 isoforms): 0.034 to 0.058 nM
% Binding [1]: 58.70%
% Binding [2]: 34.94%
Exploration time e1 (T1) ([3]; 0.1 mg/kg po): 28.38 (1.86) s
Exploration time e2 (T2) ([3]; 0.1 mg/kg po): 27.33 (1.48) s
Exploration time e1 (T1) ([3]; 0.3 mg/kg po): 27.55 (1.62) s
Exploration time e2 (T2) ([3]; 0.3 mg/kg po): 26.10 (1.69) s
Exploration time e1 (T1) ([3]; 1 mg/kg po): 27.97 (1.78) s
Exploration time e2 (T2) ([3]; 1 mg/kg po): 29.38 (1.38) s
Exploration time e1 (T1) ([3]; 3 mg/kg po): 27.28 (1.74) s
Exploration time e2 (T2) ([3]; 3 mg/kg po): 28.73 (1.62) s
Exploration time e1 (T1) ([3]; 10 mg/kg po): 26.21 (1.97) s
Exploration time e2 (T2) ([3]; 10 mg/kg po): 28.15 (1.38) s
effect on exploratory behavior during T1 or T2 ([3]; 0.1–10 mg/kg po 2 h before T1): no effect on exploratory behavior
% Binding (NK1 (h), neurokinin): 30.93%
Exploration time e1 (T1) ([4]; 0.1 mg/kg po): 29.32 (1.82) s
Exploration time e2 (T2) ([4]; 0.1 mg/kg po): 28.78 (2.08) s
Exploration time e1 (T1) ([4]; 0.3 mg/kg po): 28.83 (1.84) s
Exploration time e2 (T2) ([4]; 0.3 mg/kg po): 29.31 (1.52) s
Exploration time e1 (T1) ([4]; 1 mg/kg po): 26.81 (1.72) s
Exploration time e2 (T2) ([4]; 1 mg/kg po): 33.64 (2.35) s
Exploration time e1 (T1) ([4]; 3 mg/kg po): 27.20 (1.90) s
Exploration time e2 (T2) ([4]; 3 mg/kg po): 28.60 (1.13) s
Exploration time e1 (T1) ([4]; 10 mg/kg po): 30.59 (1.98) s
Exploration time e2 (T2) ([4]; 10 mg/kg po): 30.52 (1.87) s
full effective dose (d2 different from chance and from vehicle), retrieval ([4]; po 2 h before T2): 1 mg/kg
effect on exploratory behavior during T1 or T2 ([4]; retrieval and combined sub-threshold dose experiments): no effect on exploratory behavior
Tmax ([5]; brain): ~1.5 h
concentration at 2 h ([5]; brain, plasma levels associated with optimal effects on acquisition, read-out: brain free fraction estimated): 0.12 nM
concentration at 2 h ([5]; plasma, 2 h after drug administration, N = 12 rats, read-out: plasma level): 30.1 ± 13.4 ng/mL
concentration at 2 h ([5]; plasma, 2 h after drug administration, read-out: free plasma concentration): 0.12 nM
% Binding [6]: 88.44%
% Binding [7]: 73.28%
% Binding (H3 (h), histamine): 32.54%
